Measured values published in patent US8309577B2, “Quinuclidine compounds as α-7 nicotinic acetylcholine receptor ligands” (Bristol-Myers Squibb Company, priority 2008, dated 2012).

These molecules were tested against T1, α-7 nicotinic acetylcholine receptor channel expressed in HEK 293 cells (Rattus norvegicus, UniProt Q05941) (assay: Ca2+-sensitive fluorescence-based FLIPR assay, α7 nicotinic ACh receptor channel function (agonist)). Conditions: not given.
T1 construct: expressed in transfected cells
Format: cell-based
Experimental: I) α7 Nicotinic Acetycholine Receptor Binding. Membranes were prepared for binding using HEK293 cells stably expressing the rat α7 nicotinic acetycholine receptor (rat α7 nAChR). Cells were homogenized at 4° C. in hypotonic lysis buffer consisting of 10 mM Tris (pH 7.4), 5 mM EDTA and protease inhibitors and centrifuged at 32000×g for 20 minutes. The pellet was washed once in membrane wash buffer consisting of 50 mM Tris (pH 7.4), 1 mM EDTA and protease inhibitors and centrifuged at 32000×g for 20 minutes. This pellet was then resuspended in assay buffer consisting 50 mM KH2PO4 (pH 7.4 at 25° C.), 1 mM EDTA, 0.005% Triton-X 100 and 0.1% (v/v) Sigma Protease Inhibitor Cocktail. Aliquots were then frozen in dry ice/ethanol and kept at −80° C. until the day of the assay. II) A Ca^2+-Sensitive, Fluorescence-Based Assay α-7 for Nicotinic Acetylcholine Receptor Channel Function In Mammalian Cells (“FLIPR”). Summary: Lead compounds are evaluated for agonist activity at […], α3β4, […], and α1β1δ1ε sub-types of nicotinic ACh receptor ion channels expressed in mammalian HEK 293 cells. Agonist potency and efficacy values are determined from kinetic fluorescence Ca^2+ influx measurements made using a 384 well FLIPR (Fluorescence Image Plate Reader). […] In this assay, channel expressing HEK cell lines seeded in 384 well assay plates are loaded with a membrane permeant fluorescent Ca^2+ indicator dye, whose 510 nm green emission signal increases in response to elevation of intracellular Ca^2+ concentration. The basal fluorescence from the cells is monitored in real time, followed by the acute addition of test compounds.
Materials and Methods: Reagents: The acetomethoxy (AM) ester of the Ca^2+ indicator dye Fluo-4 was obtained from InVitrogen, (Carlsbad, Calif.). Acetylcholine and all buffer constituents were purchased from Sigma Chemical Company, St. Louis, Mo. G418 and Minimal Essential Medium were purchased from InVitrogen Life Technologies, Carlsbad, Calif. Fetal bovine serum was purchased from (InVitrogen, Carlsbad, Calif.).
Cell Culture: HEK-293 cells were grown in Minimal Essential Medium containing 10% (v/v) fetal bovine serum at 37° C. in a 5% CO2 incubator. HEK-293 cells stably expressing the ion channels were grown in the same medium with the addition of 500 μg/ml G418.
Ca^2+ flux assays of Ca^2+ channels expressed in HEK-293 cells: HEK-293 cells expressing the ion channels of interest were plated in 384 well, black-walled, clear-bottomed, poly-D-lysine coated plates at a density of ˜20,000 cells/well in 20 μl of Minimal Essential Medium containing 10% (v/v) fetal bovine serum and incubated for 2 days at 29° C. in a 5% CO2 incubator. Prior to assay, cells were loaded with the Fluo-4 AM ester. […] Dye loading was allowed to proceed for 90 minutes at room temperature at which time the dye loading solution was removed and replaced with 40 μl/well of Hanks buffer. Cells loaded with dye were loaded onto a FLIPR384 (Molecular Devices, Sunnyvale, Calif.). Fluo-4 dye was excited using the 488 nm line of an argon laser. Emission was filtered using a 540+/−30 nm bandpass filter. For evaluation of the effects of test compounds using the Ca^2+ flux assay, compounds to be tested were provided in assay ready plates. For nicotinic receptor ion channel expressing cells, the assay was initiated by the addition of 20 μl/well of Hanks buffer containing test compounds. For all assays, data were collected at 1 Hz for 10 seconds (baseline), at which time the compound containing stimulus buffers are added, and further measurements collected at 0.33 Hz for 3 min.
Data Analysis: The statistical robustness of the nicotinic receptor Ca^2+ flux assays is determined from blanks and totals wells. […] The raw fluorescence units data files generated on the FLIPR plate reader are automatically exported and processed by in-house data analysis tools.

T1 sequence (Q05941 23-502): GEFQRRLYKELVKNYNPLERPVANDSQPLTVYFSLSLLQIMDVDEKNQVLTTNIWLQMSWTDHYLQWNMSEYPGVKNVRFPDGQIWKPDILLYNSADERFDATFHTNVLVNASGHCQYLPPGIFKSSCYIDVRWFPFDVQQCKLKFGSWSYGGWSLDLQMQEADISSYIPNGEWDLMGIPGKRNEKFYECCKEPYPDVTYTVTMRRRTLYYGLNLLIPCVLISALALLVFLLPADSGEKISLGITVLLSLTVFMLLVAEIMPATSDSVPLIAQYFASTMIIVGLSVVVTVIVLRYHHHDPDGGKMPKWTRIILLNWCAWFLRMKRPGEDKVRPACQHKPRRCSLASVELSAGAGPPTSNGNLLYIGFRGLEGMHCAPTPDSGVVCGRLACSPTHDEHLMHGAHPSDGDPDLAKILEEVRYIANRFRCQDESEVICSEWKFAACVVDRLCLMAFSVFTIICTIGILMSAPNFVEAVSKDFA

In order of falling EC50:
1. Fc1ccc(-c2nnc(NC3=NCC4(CN5CCC4CC5)O3)s2)cc1 (centres unmarked) [Example 59]  4240 nM
2. CN(C)C(=O)c1ccc2nc(NC3=NCC4(CN5CCC4CC5)O3)sc2c1 (centres unmarked) [Example 57]  3900 nM

Same assay, conditions: FLIPR α7 (EC50, nM), Table 1; HEK 293 cells, agonist Ca2+ flux

In order of rising EC50:
1. Brc1ccc(NC2=NC[C@@]3(CN4CCC3CC4)O2)nc1 [Example 198]  15 nM
2. COc1nc(NC2=NC[C@@]3(CN4CCC3CC4)O2)ncc1Br [Example 178]  17 nM
3. c1cncc(-c2ccnc(NC3=NC[C@@]4(CN5CCC4CC5)O3)n2)c1 [Example 194]  18 nM
4. Clc1ccc2nc(NC3=NCC4(CN5CCC4CC5)O3)nn2c1 (centres unmarked) [Example 66]  360 nM

Same assay, conditions: FLIPR α7 activity rating (EC50, nM), Table 1; HEK 293 cells, agonist Ca2+ flux

Brc1ccc2cnc(NC3=NC[C@@]4(CN5CCC4CC5)O3)cc2c1 [Example 292, (R)—N-(6-Bromoisoquinolin-3-yl)-4H-1′-azaspiro[oxazole-5,3′-bicyclo[2.2.2]octan]-2-amine] and Brc1ccc(NC2=NC[C@@]3(CN4CCC3CC4)O2)nc1 [Example 198] cannot be ordered by EC50: < 100 nM for the first, < 100 nM for the second.

First: Cc1cc(NC2=NCC3(CN4CCC3CC4)O2)nc(C)n1 (racemic) [Example 123]
Second: COc1cc(NC2=NC[C@@]3(CN4CCC3CC4)O2)nc(OC)n1 [Example 150]
The EC50 of the first is higher: 1000 to 100000 nM for the first, 100 to 1000 nM for the second.

Cn1c(-c2ccccc2)cnc1NC1=NCC2(CN3CCC2CC3)O1 (centres unmarked) [Example 96] and c1ccc(-c2n[nH]c(NC3=NC[C@@]4(CN5CCC4CC5)O3)n2)cc1 [Example 188] fall in the same range of EC50: 1000 to 100000 nM for the first, 1000 to 100000 nM for the second.

Brc1cnc(NC2=NC[C@@]3(CN4CCC3CC4)O2)nc1-c1cccnc1 [Example 230, (R)—N-(5-Bromo-4-(pyridin-3-yl)pyrimidin-2-yl)-4H-1′-azaspiro[oxazole-5,3′-bicyclo[2.2.2]octan]-2-amine] and c1cncc(-c2ccnc(NC3=NC[C@@]4(CN5CCC4CC5)O3)n2)c1 [Example 194] cannot be ordered by EC50: < 100 nM for the first, < 100 nM for the second.

First: c1ccc2c(c1)CCc1cnc(NC3=NC[C@@]4(CN5CCC4CC5)O3)nc1-2 [Example 153]
Second: c1nc(NC2=NC[C@@]3(CN4CCC3CC4)O2)nc2c1CCCC2 [Example 201]
The EC50 of the first is higher: 100 to 1000 nM for the first, < 100 nM for the second. The second is the more potent here.

Compared with c1nc(NC2=NC[C@@]3(CN4CCC3CC4)O2)ncc1OC1CCCC1 [Example 219, (R)—N-(5-(Cyclopentyloxy)pyrimidin-2-yl)-4H-1′-azaspiro[oxazole-5,3′-bicyclo[2.2.2]octan]-2-amine], COc1nc(NC2=NC[C@@]3(CN4CCC3CC4)O2)ncc1Br [Example 178] is lower in EC50: 1000 to 100000 nM for the first, < 100 nM for the second.

Compared with c1ccc2c(c1)CCc1cnc(NC3=NC[C@@]4(CN5CCC4CC5)O3)nc1-2 [Example 177], c1ccc(-c2nc(NC3=NC[C@@]4(CN5CCC4CC5)O3)ncc2-n2cncn2)cc1 [Example 195] is higher in EC50: < 100 nM for the first, 1000 to 100000 nM for the second.

First: Clc1ccc2nc(NC3=NCC4(CN5CCC4CC5)O3)nn2c1 (centres unmarked) [Example 66]
Second: c1ccn2nc(NC3=NCC4(CN5CCC4CC5)O3)nc2c1 (centres unmarked) [Example 87]
The EC50 of the first is higher: 100 to 1000 nM for the first, < 100 nM for the second. The second is the more potent here.

First: COc1ccc2nc(NC3=NCC4(CN5CCC4CC5)O3)sc2c1 (single isomer, unassigned) [Example 5a]
Second: FC(F)Oc1ccc2nc(NC3=NCC4(CN5CCC4CC5)O3)sc2c1 (centres unmarked) [Example 104]
The EC50 of the first is higher: 1000 to 100000 nM for the first, 100 to 1000 nM for the second. The second is the more potent here.

First: Clc1cncc(NC2=NC[C@@]3(CN4CCC3CC4)O2)n1 [Example 127]
Second: Fc1ccc(NC2=NC[C@@]3(CN4CCC3CC4)O2)nc1 [Example 197]
The EC50 of the first is higher: 1000 to 100000 nM for the first, < 100 nM for the second.

COc1cc(NC2=NC[C@@]3(CN4CCC3CC4)O2)ccn1 [Example 199] and c1nc2cc(NC3=NCC4(CN5CCC4CC5)O3)ccc2s1 (centres unmarked) [Example 71] fall in the same range of EC50: 1000 to 100000 nM for the first, 1000 to 100000 nM for the second.

c1csc(NC2=NCC3(CN4CCC3CC4)O2)n1 (racemic) [Example 16, N-(Thiazol-2-yl)-4H-1′-azaspiro[oxazole-5,3′-bicyclo[2.2.2]octan]-2-amine] and Cc1csc(NC2=NCC3(CN4CCC3CC4)O2)n1 (centres unmarked) [Example 109] fall in the same range of EC50: 100 to 1000 nM for the first, 100 to 1000 nM for the second.

First: c1cncc(-c2ncc(NC3=NC[C@@]4(CN5CCC4CC5)O3)cn2)c1 [Example 138]
Second: c1ccc2c(NC3=NC[C@@]4(CN5CCC4CC5)O3)ncnc2c1 [Example 147]
The EC50 of the first is higher: 1000 to 100000 nM for the first, 100 to 1000 nM for the second.

First: Clc1ccc(-c2cc(NC3=NC[C@@]4(CN5CCC4CC5)O3)ncn2)cc1 [Example 256, (R)—N-(6-(4-Chlorophenyl)pyrimidin-4-yl)-4H-1′-azaspiro[oxazole-5,3′-bicyclo[2.2.2]octan]-2-amine]
Second: Fc1ccc(-c2nnc(NC3=NCC4(CN5CCC4CC5)O3)s2)cc1 (centres unmarked) [Example 59]
The EC50 of the first is lower: < 100 nM for the first, 1000 to 100000 nM for the second. The first is the more potent here.

First: Clc1cnc(NC2=NC[C@@]3(CN4CCC3CC4)O2)c(Cl)c1 [Example 267, (R)—N-(3,5-Dichloropyridin-2-yl)-4H-1′-azaspiro[oxazole-5,3′-bicyclo[2.2.2]octan]-2-amine]
Second: Clc1ccnc(NC2=NC[C@@]3(CN4CCC3CC4)O2)c1Cl [Example 282, (R)—N-(3,4-Dichloropyridin-2-yl)-4H-1′-azaspiro[oxazole-5,3′-bicyclo[2.2.2]octan]-2-amine]
The EC50 of the first is lower: < 100 nM for the first, 100 to 1000 nM for the second.

Compared with c1ccc(Cc2cnc(NC3=NCC4(CN5CCC4CC5)O3)s2)cc1 (centres unmarked) [Example 105], c1ccc2sc(NC3=NCC4(CN5CCC4CC5)O3)nc2c1 (single isomer, unassigned) [Example 1b] is lower in EC50: 100 to 1000 nM for the first, < 100 nM for the second. The second is the more potent here.

First: FC(F)(F)c1cccc2c(NC3=NC[C@@]4(CN5CCC4CC5)O3)n[nH]c12 [Example 206]
Second: Oc1ccc2nc(NC3=NCC4(CN5CCC4CC5)O3)sc2c1 (single isomer, unassigned) [Example 13a]
The EC50 of the first is higher: 1000 to 100000 nM for the first, 100 to 1000 nM for the second.

Compared with CN(C)C(=O)c1ccc2nc(NC3=NCC4(CN5CCC4CC5)O3)sc2c1 (centres unmarked) [Example 57], Cc1cc(C)c2nc(NC3=NCC4(CN5CCC4CC5)O3)sc2c1 (centres unmarked) [Example 89] is lower in EC50: 1000 to 100000 nM for the first, < 100 nM for the second.

COc1ccc(C)c2nc(NC3=NCC4(CN5CCC4CC5)O3)sc12 (centres unmarked) [Example 112] and Cc1nc(NC2=NC[C@@]3(CN4CCC3CC4)O2)nc(Cl)c1C [Example 203] cannot be ordered by EC50: < 100 nM for the first, < 100 nM for the second.

First: Cc1ccn2nc(NC3=NCC4(CN5CCC4CC5)O3)nc2c1 (centres unmarked) [Example 94]
Second: Brc1ccc(NC2=NC[C@@]3(CN4CCC3CC4)O2)nn1 [Example 255, (R)—N-(6-Bromopyridazin-3-yl)-4H-1′-azaspiro[oxazole-5,3′-bicyclo[2.2.2]octan]-2-amine]
The EC50 of the first is lower: < 100 nM for the first, 100 to 1000 nM for the second. The first is the more potent here.

COc1nc(Br)cnc1NC1=NC[C@@]2(CN3CCC2CC3)O1 [Example 130] showed an EC50 of 100 to 1000 nM.

Same assay, conditions: FLIPR α7 activity rating (EC50, nM), Table Ib; HEK 293 cells, agonist Ca2+ flux

Fc1cnc(NC2=NC[C@@]3(CN4CCC3CC4)O2)nc1 [Example 316, (R)—N-(5-Fluoropyrimidin-2-yl)-4H-1′-azaspiro[oxazole-5,3′-bicyclo[2.2.2]octan]-2-amine] and Fc1cccc2nc(NC3=NC[C@@]4(CN5CCC4CC5)O3)ncc12 [Example 323, (R)—N-(5-Fluoroquinazolin-2-yl)-4H-1′-azaspiro[oxazole-5,3′-bicyclo[2.2.2]octan]-2-amine] cannot be ordered by EC50: < 100 nM for the first, < 100 nM for the second.

Fc1cncc(-c2cc(NC3=NC[C@@]4(CN5CCC4CC5)O3)ncn2)c1 [Example 332, (R)—N-(6-(5-Fluoropyridin-3-yl)pyrimidin-4-yl)-4H-1′-azaspiro[oxazole-5,3′-bicyclo[2.2.2]octan]-2-amine] and Cc1cn(-c2cc(NC3=NC[C@@]4(CN5CCC4CC5)O3)ncn2)cn1 [Example 348, (R)—N-(6-(4-Methyl-1H-imidazol-1-yl)pyrimidin-4-yl)-4H-1′-azaspiro[oxazole-5,3′-bicyclo[2.2.2]octan]-2-amine] cannot be ordered by EC50: < 100 nM for the first, < 100 nM for the second.

COc1ccc(NC2=NC[C@@]3(CN4CCC3CC4)O2)nc1 [Example 310, (R)—N-(5-Methoxypyridin-2-yl)-4H-1′-azaspiro[oxazole-5,3′-bicyclo[2.2.2]octan]-2-amine] and Fc1cc2cnc(NC3=NC[C@@]4(CN5CCC4CC5)O3)cc2cc1F [Example 319, (R)—N-(6,7-Difluoroisoquinolin-3-yl)-4H-1′-azaspiro[oxazole-5,3′-bicyclo[2.2.2]octan]-2-amine] cannot be ordered by EC50: < 100 nM for the first, < 100 nM for the second.
